Experimental findings from patent publication US5407939A, “Fluorinated 17 β-substituted 4-aza-5 α-androstan-3-one derivatives” (Farmitalia Carlo Erba S.R.L., priority 1992, dated 1995) are described below.

Test [1] deals with T1, 5α-reductase (Homo sapiens, UniProt P31213).
T1 construct: particulate fraction from homogenates of hyperplastic human prostates; from tissue; host or cells: hyperplastic human prostate, particulate fraction (140,000×g pellet)
T1 sequence (P31213 1-254): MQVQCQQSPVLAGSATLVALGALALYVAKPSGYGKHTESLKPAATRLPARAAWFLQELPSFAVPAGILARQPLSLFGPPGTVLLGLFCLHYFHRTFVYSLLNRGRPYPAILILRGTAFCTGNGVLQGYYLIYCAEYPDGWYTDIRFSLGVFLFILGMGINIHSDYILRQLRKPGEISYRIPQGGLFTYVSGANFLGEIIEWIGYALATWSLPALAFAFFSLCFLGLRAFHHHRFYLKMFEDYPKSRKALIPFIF
As to the kind of experiment: In vitro assay of 5α-reductase inhibition (particulate fraction from homogenates of hyperplastic human prostates, [14C] testosterone). The test is classed as biochemical. Conditions: human prostate particulate fraction, pH 5.5, 1 μM [14C] testosterone, 30 min, 37° C.
Protocol: Inhibition of 5α-reductase was evaluated using the particulate fraction from homogenates of hyperplastic human prostates as the enzyme source. The particulate fraction was prepared centrifuging prostate homogenate at 140,000×g. The resulting pellet, washed several times, was resuspended in buffer and stored at -80° C. in aliquots containing ≈10 mg protein/mi.
The assay for 5α-reductase was done in a final volume of 0.5 ml, in 40 mM TRIS-HCl buffer pH 5.5, containing 1 mM dithiothreitol, 5 mM NADPH, 1 μM [^14 C] testosterone, an aliquot of the enzyme preparation and various of the inhibitors. After 30 min incubation at 37° C. the reaction was terminated by addition of 2 ml cold diethyl ether and the organic phase was separated, evaporated under N2 and resuspended in ethyl acetate. Testosterone metabolites in this extract were separated in TLC on silica gel F 254 plates (Merck), using chloroform, acetone and n-hexane (2:1:2) as developing solvent system.
Radioactivity on the plate was scanned and analyzed from quantitative plots printed by a TLC-analyzer (Berthold). The fractional 5α-reduction of testosterone was calculated by relating the ^14 C-radioactivity in the 5α-reduced metabolites (5α-dihydrotestosterone, 3α- and 3β-androstanediols) regions to the total radioactivity in the testosterone and 5α-reduced metabolites regions. […]

In test [2] the test system is 5α-reductase. As to the kind of experiment: In vivo inhibition of 5α-reductase (antiandrogenic effect, ventral prostate weight in castrated, testosterone-implanted rats). Conditions: rat, once daily for 7 consecutive days. How it is done: The standard test for the antiandrogenic effect in rats was used. Prepuberal 22-day-old male rats were castrated via scrotal incision under light ether anaesthesia. […] Control animals (testosterone controls) received the vehicle (0.5 ml/kg of 0.5% Methocel/0.4% Tween 80). One group of castrated rats was not implanted with testosterone (castrated controls).
The mean percentage of inhibition of the T-induced hypertrophic response of the prostate was calculated according to the following formula: […]

`C[C@]12C=CC(=O)N[C@@H]1CC[C@@H]1[C@@H]2CC[C@]2(C)[C@@H](C(=O)NC(c3ccccc3)C(F)(F)F)CC[C@@H]12` (stereo partly drawn) [Compound 40, N-(2,2,2-trifluorophenylethyl) 3-oxo-4-aza-5α-androst-1-ene-17β-carboxamide] showed an IC50 in test [1] of 21 nM. The “% INHIBITION OF PROSTATE WEIGHT AT 3 mg/kg/day p.o.” value in test [2] is listed as 51%.
